The source of these data is patent publication US4342772A, “β-Lactam compounds, antibacterial compositions thereof and method of use” (priority 1979, dated 1982).

One data set relates to β-lactamases. The conditions noted are these: cited from earlier work.
Data set [1] has as its system gram-positive and gram-negative organisms. The conditions noted are these: cited from earlier work.
For data set [2], the system named is β-lactamase producing bacteria. The conditions noted are these: cited from earlier work.
The conditions of data set [3]: human, in vivo, po. On the procedure:
Serum concentrations and urinary excretion of ampicillin in fasting
following oral administration of
A. 125 mg of pivampicillin free base in tablets.
B. 170 mg of VD-1827^x hydrochloride (corresponding to 125 mg of
free base) in aqueous solution.
Serum concentrations (μg/ml) (% of dose)

Data set [4] in a line: Absorption from the gastro-intestinal tract and in vivo hydrolysis. On the set-up: species or system animals and human volunteers. The conditions noted are these: oral, in words.
The nature of data set [5]: Stability of crystalline form. Format: physicochemical. The settings on record: crystalline free base; in words.
For data set [6] the following is noted: cited from earlier work.
For data set [7] the following is noted: in words, medium not stated; cited from earlier work.
Data set [8] in a line: Urinary excretion in 0 to 6 hours of penicillanic acid 1,1-dioxide in fasting volunteers following oral administration (Table II). The conditions noted are these: oral 73 mg potassium penicillanate 1,1-dioxide, aqueous solution, individual subjects in order GK, MK, FJ, MM, LA, 360 min.

Several values for one entry are separate records, joined by “and”; a condition that tells them apart may be missing. Equal entries are not always repeated. Structures can show the parent of a compound that is named as a salt. Where two headings read alike, the source gives them in different places.

For the molecule `CC1(C)[C@H](C(=O)O)N2C(=O)[C@H](Cl)[C@H]2S1(=O)=O` [6α-chloropenicillanic acid 1,1-dioxide], in the data set with β-lactamases, the “Inhibition of a wide range of β-lactamases” value (shortened to “Inhibition”) is recorded as “powerful inhibitors”. For the same molecule, the “Antibacterial activity against most gram-positive and gram-negative organisms” value (shortened to “Antibacterial activity”) in data set [1] is “only weak antibacterial activity”. The “Synergy against β-lactamase producing bacteria” value (from here on “Synergy”) in [2] is reported as “act synergistically”.
As for `CC1(C)S[C@@H]2[C@H](NC(=O)[C@H](N)c3ccccc3)C(=O)N2[C@H]1C(=O)OCOC(=O)[C@@H]1N2C(=O)C[C@H]2S(=O)(=O)C1(C)C` [VD-1827 hydrochloride, 1,1-Dioxopenicillanoyloxymethyl 6-(D-α-amino-α-phenylacetamido)penicillanate hydrochloride], the “Urinary recovery of ampicillin compared with pivampicillin” value in data set [3] was “comparable to that following administration of pivampicillin”. In addition, the “Absorption from the gastro-intestinal tract” value in data set [4] (HCl, hydrochloride) is “efficient oral absorption”.
In the case of `CC1(C)S[C@@H]2[C@H](NC(=O)[C@H](N)c3ccccc3)C(=O)N2[C@H]1C(=O)OCOC(=O)[C@@H]1N2C(=O)C[C@H]2S(=O)(=O)C1(C)C` [VD-1827, free base, 1,1-Dioxopenicillanoyloxymethyl 6-(D-α-amino-α-phenylacetamido)penicillanate], the “Absorption from the gastro-intestinal tract” value in data set [4] (listed as free base VD 1827) is on record as “readily absorbable”. Also, the Stability result in data set [5] is “stable”.
Turning to `CC1(C)S[C@@H]2C(NC(=O)[C@H](N)c3ccccc3)C(=O)N2[C@H]1C(=O)O` (stereo partly drawn) [ampicillin, 6-(D-α-amino-α-phenylacetamido)penicillanic acid], the “Absorption from the gastro-intestinal tract (general statement)” value (from here on “Absorption … (general statement)”) in data set [6] (oral, in words, no data shown) is “incompletely absorbed”.
As to `CC1(C)S[C@@H]2[C@H](NC(=O)C(C(=O)O)c3ccccc3)C(=O)N2[C@H]1C(=O)O` (some centres unmarked) [carbenicillin], the “Absorption … (general statement)” value in data set [6] (in vivo, po) is recorded as “incompletely absorbed”.
Turning to `COc1cccc(OC)c1C(=O)N[C@@H]1C(=O)N2[C@@H](C(=O)O)C(C)(C)S(=O)(=O)[C@H]12` [methicillin sulphone, 1,1-dioxo-6β-(2,6-dimethoxybenzamido)penicillanic acid], in the data set with β-lactamases, the “Inhibition” value is listed as “powerful inhibitors”. In addition, in data set [1], the “Antibacterial activity” value is listed as “only weak antibacterial activity”. Moreover, in data set [2], the “Synergy” value is listed as “act synergistically”.
For the molecule `CC1(C)[C@H](C(=O)O)N2C(=O)C[C@H]2S1(=O)=O` [penicillanic acid 1,1-dioxide], in [4], the “Absorption from the gastro-intestinal tract” value was “absorbed poorly or irregularly”. Further, the “Inhibition” value with β-lactamases is given as “powerful inhibitors”. Further, the “Antibacterial activity” value in [1] was “only weak antibacterial activity”. Further, in [2], the “Synergy” value is recorded as “act synergistically”.
Turning to `CC(C)(C)C(=O)OCOC(=O)[C@@H]1N2C(=O)C[C@H]2S(=O)(=O)C1(C)C` [pivaloyloxymethyl ester of the β-lactamase inhibitor penicillanic acid 1,1-dioxide], the “Solubility (general statement)” value in [7] is on record as “sparingly soluble”. The “Absorption … (general statement)” value in data set [6] (oral, in words, no data shown) is listed as “absorbed much more slowly”.
On to `CC(C)(C)C(=O)OCOC(=O)[C@@H]1N2C(=O)[C@@H](NC(=O)[C@H](N)c3ccccc3)[C@H]2SC1(C)C` [pivampicillin], for which the “Absorption … (general statement)” value in data set [6] (oral, in words, no data shown) is on record as “absorbed very rapidly”.
As to `CC1(C)[C@H](C(=O)[O-])N2C(=O)C[C@H]2S1(=O)=O.[K+]` [potassium penicillanate 1,1-dioxide], the “Urinary excretion of penicillanic acid 1,1-dioxide” value in [8] is 2.5 % of dose and 4.0 % of dose and 9.5 % of dose and 5.5 % of dose and 4.5 % of dose.
Take `CC1(C)[C@H](C(=O)O)N2C(=O)[C@@H](NC(=O)c3nc4ccccc4nc3C(=O)O)[C@H]2S1(=O)=O` [quinacillin sulphone]: in the data set with β-lactamases, the “Inhibition” value is given as “powerful inhibitors”. In [1], the “Antibacterial activity” value is listed as “only weak antibacterial activity”. Further, the “Synergy” value in data set [2] is listed as “act synergistically”.
